Laboratory results taken from the NIST ThermoML archive (doi:10.1021/acs.jced.6b00542).
± gives the expanded uncertainty stated by the source.

Experiment: xn = mol fraction of the nth substance listed
Conditions: for speed of sound: 100 kPa, Frequency=3 MHz, Sing-around technique in a fixed-path interferometer; for speed of sound / viscosity / mass density: Liquid; for viscosity / mass density: 102 kPa; for viscosity: Concentric cylinders viscometry; for mass density: Vibrating tube method; for surface tension liquid-gas: 294.5 K, Pendant drop shape

CCCCc1ccccc1 [butylbenzene] + CCCCCCCCCCCC
Conditions	mass density [kg/m3]	speed of sound [m/s]	viscosity [mPa·s]
293.15 K, x1 = 0.1241	758.28 ± 0.15	1300.2 ± 1	1.38 ± 0.01
293.15 K, x1 = 0.2414	768.11 ± 0.15	1302.8 ± 0.9	1.31 ± 0.01
293.15 K, x1 = 0.3524	778.18 ± 0.14	1306.4 ± 0.9	1.24 ± 0.01
293.15 K, x1 = 0.4583	788.6 ± 0.14	1310.3 ± 0.9	1.19 ± 0.01
293.15 K, x1 = 0.5593	799.56 ± 0.13	1315.4 ± 0.9	1.15 ± 0.01
293.15 K, x1 = 0.6552	810.7 ± 0.13	1321.3 ± 0.9	1.11 ± 0.01
293.15 K, x1 = 0.7575	823.88 ± 0.12	1328.6 ± 0.9	1.08 ± 0.01
293.15 K, x1 = 0.8349	834.67 ± 0.12	1335.5 ± 0.9	1.06 ± 0.01
293.15 K, x1 = 0.9194	847.33 ± 0.12	1343.9 ± 0.9	1.04 ± 0.01
293.15 K, x1 = 1	860.51 ± 0.11	1353.7 ± 0.9	1.05 ± 0.01
303.15 K, x1 = 0.1241	750.96 ± 0.16	1262 ± 1	1.17 ± 0.01
303.15 K, x1 = 0.2414	760.73 ± 0.15	1264.8 ± 0.9	1.12 ± 0.01
303.15 K, x1 = 0.3524	770.74 ± 0.14	1268.4 ± 0.9	1.07 ± 0.01
303.15 K, x1 = 0.4583	781.11 ± 0.14	1272.3 ± 0.9	1.03 ± 0.01
303.15 K, x1 = 0.5593	791.97 ± 0.13	1277.3 ± 0.9	0.996 ± 0.007
303.15 K, x1 = 0.6552	803.03 ± 0.13	1283.1 ± 0.9	0.968 ± 0.007
303.15 K, x1 = 0.7575	816.12 ± 0.12	1290.4 ± 0.9	0.941 ± 0.007
303.15 K, x1 = 0.8349	826.84 ± 0.12	1297 ± 0.9	0.925 ± 0.007
303.15 K, x1 = 0.9194	839.4 ± 0.12	1305.4 ± 0.9	0.909 ± 0.007
303.15 K, x1 = 1	852.49 ± 0.11	1314.9 ± 0.9	0.91 ± 0.007
313.15 K, x1 = 0.1241	743.61 ± 0.16	1224.4 ± 0.9	1.01 ± 0.01
313.15 K, x1 = 0.2414	753.32 ± 0.15	1227.2 ± 0.9	0.968 ± 0.007
313.15 K, x1 = 0.3524	763.26 ± 0.15	1230.8 ± 0.9	0.931 ± 0.007
313.15 K, x1 = 0.4583	773.56 ± 0.14	1234.7 ± 0.9	0.9 ± 0.007
313.15 K, x1 = 0.5593	784.35 ± 0.14	1239.7 ± 0.9	0.873 ± 0.007
313.15 K, x1 = 0.6552	795.32 ± 0.13	1245.4 ± 0.9	0.85 ± 0.007
313.15 K, x1 = 0.7575	808.33 ± 0.13	1252.5 ± 0.9	0.829 ± 0.007
313.15 K, x1 = 0.8349	818.96 ± 0.12	1259.1 ± 0.9	0.816 ± 0.006
313.15 K, x1 = 0.9194	831.44 ± 0.12	1267.3 ± 0.9	0.804 ± 0.006
313.15 K, x1 = 1	844.43 ± 0.11	1276.6 ± 0.9	0.801 ± 0.006
323.15 K, x1 = 0.1241	736.23 ± 0.16	1187.2 ± 0.9	0.879 ± 0.007
323.15 K, x1 = 0.2414	745.87 ± 0.15	1190 ± 0.9	0.846 ± 0.007
323.15 K, x1 = 0.3524	755.75 ± 0.15	1193.7 ± 0.9	0.817 ± 0.007
323.15 K, x1 = 0.4583	765.97 ± 0.14	1197.6 ± 0.9	0.793 ± 0.006
323.15 K, x1 = 0.5593	776.69 ± 0.14	1202.5 ± 0.9	0.771 ± 0.006
323.15 K, x1 = 0.6552	787.58 ± 0.13	1208.1 ± 0.9	0.753 ± 0.006
323.15 K, x1 = 0.7575	800.5 ± 0.13	1215.2 ± 0.9	0.736 ± 0.006
323.15 K, x1 = 0.8349	811.06 ± 0.13	1221.6 ± 0.8	0.725 ± 0.006
323.15 K, x1 = 0.9194	823.44 ± 0.12	1229.7 ± 0.8	0.716 ± 0.006
323.15 K, x1 = 1	836.34 ± 0.11	1238.7 ± 0.8	0.713 ± 0.006
333.15 K, x1 = 0.1241	728.82 ± 0.16	1150.5 ± 0.9	0.771 ± 0.007
333.15 K, x1 = 0.2414	738.39 ± 0.16	1153.4 ± 0.9	0.745 ± 0.006
333.15 K, x1 = 0.3524	748.19 ± 0.15	1157 ± 0.9	0.722 ± 0.006
333.15 K, x1 = 0.4583	758.34 ± 0.15	1161 ± 0.9	0.703 ± 0.006
333.15 K, x1 = 0.5593	768.98 ± 0.14	1165.8 ± 0.9	0.686 ± 0.006
333.15 K, x1 = 0.6552	779.81 ± 0.14	1171.3 ± 0.9	0.671 ± 0.006
333.15 K, x1 = 0.7575	792.63 ± 0.13	1178.4 ± 0.8	0.657 ± 0.006
333.15 K, x1 = 0.8349	803.11 ± 0.13	1184.6 ± 0.8	0.649 ± 0.006
333.15 K, x1 = 0.9194	815.41 ± 0.12	1192.5 ± 0.8	0.64 ± 0.006
333.15 K, x1 = 1	828.21 ± 0.12	1201.4 ± 0.8	0.636 ± 0.006
343.15 K, x1 = 0.1241	721.2 ± 0.3	–	0.683 ± 0.006
343.15 K, x1 = 0.2414	730.8 ± 0.3	–	0.662 ± 0.006
343.15 K, x1 = 0.3524	740.5 ± 0.2	–	0.643 ± 0.006
343.15 K, x1 = 0.4583	750.7 ± 0.2	–	0.627 ± 0.006
343.15 K, x1 = 0.5593	761.2 ± 0.2	–	0.614 ± 0.006
343.15 K, x1 = 0.6552	771.9 ± 0.2	–	0.602 ± 0.006
343.15 K, x1 = 0.7575	784.7 ± 0.2	–	0.59 ± 0.006
343.15 K, x1 = 0.8349	795.1 ± 0.2	–	0.583 ± 0.006
343.15 K, x1 = 0.9194	807.2 ± 0.2	–	0.576 ± 0.006
343.15 K, x1 = 1	819.9 ± 0.2	–	0.571 ± 0.006
353.15 K, x1 = 0.1241	713.7 ± 0.3	–	0.608 ± 0.006
353.15 K, x1 = 0.2414	723.2 ± 0.3	–	0.591 ± 0.006
353.15 K, x1 = 0.3524	732.9 ± 0.2	–	0.576 ± 0.006
353.15 K, x1 = 0.4583	743 ± 0.2	–	0.563 ± 0.006
353.15 K, x1 = 0.5593	753.4 ± 0.2	–	0.552 ± 0.006
353.15 K, x1 = 0.6552	764 ± 0.2	–	0.542 ± 0.006
353.15 K, x1 = 0.7575	776.7 ± 0.2	–	0.532 ± 0.006
353.15 K, x1 = 0.8349	787 ± 0.2	–	0.526 ± 0.006
353.15 K, x1 = 0.9194	799.1 ± 0.2	–	0.521 ± 0.006
353.15 K, x1 = 1	811.7 ± 0.2	–	0.516 ± 0.006
363.15 K, x1 = 0.1241	706.1 ± 0.3	–	0.546 ± 0.006
363.15 K, x1 = 0.2414	715.6 ± 0.3	–	0.532 ± 0.006
363.15 K, x1 = 0.3524	725.1 ± 0.3	–	0.519 ± 0.006
363.15 K, x1 = 0.4583	735.2 ± 0.2	–	0.508 ± 0.006
363.15 K, x1 = 0.5593	745.5 ± 0.2	–	0.499 ± 0.005
363.15 K, x1 = 0.6552	756 ± 0.2	–	0.491 ± 0.005
363.15 K, x1 = 0.7575	768.6 ± 0.2	–	0.483 ± 0.005
363.15 K, x1 = 0.8349	778.9 ± 0.2	–	0.478 ± 0.005
363.15 K, x1 = 0.9194	790.9 ± 0.2	–	0.473 ± 0.005
363.15 K, x1 = 1	803.4 ± 0.2	–	0.469 ± 0.005
373.15 K, x1 = 0.1241	698.5 ± 0.3	–	0.493 ± 0.006
373.15 K, x1 = 0.2414	707.8 ± 0.3	–	0.481 ± 0.005
373.15 K, x1 = 0.3524	717.3 ± 0.3	–	0.471 ± 0.005
373.15 K, x1 = 0.4583	727.2 ± 0.2	–	0.461 ± 0.005
373.15 K, x1 = 0.5593	737.5 ± 0.2	–	0.454 ± 0.005
373.15 K, x1 = 0.6552	747.9 ± 0.2	–	0.447 ± 0.005
373.15 K, x1 = 0.7575	760.5 ± 0.2	–	0.44 ± 0.005
373.15 K, x1 = 0.8349	770.7 ± 0.2	–	0.436 ± 0.005
373.15 K, x1 = 0.9194	782.6 ± 0.2	–	0.432 ± 0.005
373.15 K, x1 = 1	795 ± 0.2	–	0.43 ± 0.005

Conditions	surface tension liquid-gas [mN/m]
x1 = 0.1241	25.4 ± 0.4
x1 = 0.2414	26 ± 0.4
x1 = 0.3524	26.3 ± 0.4
x1 = 0.4583	26.2 ± 0.4
x1 = 0.5593	26.7 ± 0.4
x1 = 0.6552	27 ± 0.4
x1 = 0.7575	27.5 ± 0.4
x1 = 0.8349	27.7 ± 0.4
x1 = 0.9194	28.4 ± 0.4
